Data published in US5532225A, “Acyclic purine phosphonate nucleotide analogs as antiviral agents, and related synthetic methods” (SRI International, priority 1992, dated 1996).

Key:
[1] = system: human cytomegalovirus; experiment: in vitro antiviral evaluation (cytotoxicity and viral cytopathic effect, CPE) in MRC-5 cells; assay type: cell-based; conditions: racemate approximately 50:50 (w/w) of 1-9 and 2-9
Experimental: The compounds prepared in Examples 1 and 2 were evaluated in vitro as antiviral agents against human cytomegalovirus.
One herpes virus strain employed was Strain McCrae of type 1 herpes (thymidine kinase positive virus) (HSV-1TK^+). This strain was prepared and titered in MA-104 cells and frozen at -90° C. until use. Also used were strain HF (HSV-1TK^-), strain E194 (HSV-2), NJB strain (MCMV), and strain AD169 (HCMV).
Continuous passaged MRC-5 cells obtained from the American Type Culture Collection (Bethesda, Md.) were used for testing of herpes-type virus, with growth medium consisting of Minimum Essential Medium (MEM) supplemented with 0.1% NaHCO3 and […] gentamicin.
To a 96 well microtiter plate containing an established 24 hour monolayer of cells from which the medium has been decanted was added 0.1 mL of varying (one-half log10) concentrations of test compound, which incubated on the cell 15 minutes, after which 0.1 mL of virus in a concentration of 320 cell culture 50% infectious doses (CCID50)/0.1 mL was added. The plate was covered with plastic wrap and incubated at 37° C. The cells were examined microscopically after 72 hours for evidence of cytotoxicity and for viral cytopathic effect (CPE).

[2] = system: several herpes viruses; experiment: activity of isolated enantiomer against several herpes viruses (general statement); assay type: cell-based

Compound: Nc1nc2c(ncn2CO[C@@H](CO)CCP(=O)(O)O)c(=O)[nH]1 [Compound 2-9, 9-[(R(-)-1-Hydroxymethyl-3-phosphono)-propyl-oxymethyl]guanine]
- share of the antiviral activity of the racemate due to the enantiomer (conclusion in words) [1]: majority of the antiviral activity of the racemate is due to the (R) enantiomer
- activity against several herpes viruses (in words) [2]: significant activity against several herpes viruses
